Reference: patent US12616740B2, “Methods of using a GIP/GLP1 co-agonist for therapy” (ELI LILLY AND COMPANY, priority 2018, dated 2026)

Columns and labels:
Type in all cases: in vivo, human
[1] = NCT03131687: weight loss at Week 26
Procedure: (§1) Clinical Study (NCT03131687) Supporting Maintenance Dose Embodiments A 6-month (26-week) Phase 2 double-blind clinical study is designed to evaluate the safety, efficacy, and PK/PD of 4 dose levels (1 mg, 5 mg, 10 mg and 15 mg respectively) of tirzepatide once weekly by subcutaneous injection compared with dulaglutide 1.5 mg. once weekly (QW) and placebo QW in patients with T2DM who have inadequate glycemic control with diet and exercise with or without a stable dose of metformin. Tirzepatide dose is up-titrated to the maintenance dose using the following weekly dose increments:
(§2) The study also has a 4-week follow up period. In addition to safety and efficacy for treating T2DM, efficacy endpoints include the effect of tirzepatide on HbA1c, FBG, body weight, lipids, and waist circumference compared with placebo and with dulaglutide 1.5 mg. The study also evaluates the effect of tirzepatide on GI tolerability, hypoglycemia, hypersensitivity reactions, and pancreatic safety, as well as the development of treatment-emergent anti-drug antibodies. Model-based dose response analyses are performed to predict potential for significant HbA1c lowering and weight loss in longer studies. Statistical Analyses: Efficacy: The primary efficacy outcome of HbA1c change from baseline to the 26-week endpoint is analyzed using a Bayesian dose-response model. Analyses are performed on the intention to treat population (mITT) analysis set. Supportive analysis of the primary efficacy outcome for the mITT dataset are the model for post-baseline measures (MMRM) with body mass index (BMI) (<30 kg/m^2, ≥30 kg/m^2), metformin use, treatment, visit, and treatment-by-visit interaction as fixed effects, baseline HbA1c as a covariate, and patient as a random effect. The mean weight change from baseline at 12 and 26 weeks, along with the mean change from baseline of HbA1c at 12 weeks, is analyzed using similar dose-response models as the primary analyses. The percentages of patients with ≥5% or ≥10% body weight loss, reaching the HbA1c target of ≤6.5% or ≤7.0% at 26 weeks, or requiring rescue therapy are analyzed using logistic regression with fixed effects of treatment and strata, and baseline as a covariate. The changes from baseline in FBG (fasting blood glucose), SMBG (self-monitored blood glucose) levels, waist circumference, and mean percentage change in lipids from baseline to 12 and 26 weeks are analyzed using a similar MMRM to the one used for the primary analyses. Table Abbreviations: Dula 1.5 mg=dulaglutide 1.5 mg once weekly; LY means tirzepatide, and LY 1 mg=tirzepatide 1 mg once weekly; LY 5 mg=5 mg once weekly; LY 10 mg=escalation dose group tirzepatide once weekly with highest dose of 10 mg; LY 15 mg=escalation dose group of tirzepatide once weekly with highest dose 15 mg; LOCF=last observation-carried-forward; N=number of patients; pbo=placebo; Week 26=mITT on-treatment data at Week 26 excluding data after study drug discontinuation or rescue drug initiation; mITT=modified intent-to-treat; SD=standard deviation. For Table 4, n=number of patients in the population with baseline and post-baseline value at the specified time point. For Table 6, LY10 mg=escalation dose group tirzepatide, once weekly with highest dose of 10 mg; escalation dose: (5 mg weeks 0 and 1), LY15 mg=escalation dose group tirzepatide, once weekly with highest dose of 15 mg; escalation dose: (5 mg weeks 0 and 1; 10 mg weeks 2 to 5); N=number of patients in specified group, m=number of patients who experienced new event during interval, FolUp=follow up, T/Wk=Time range, (week) and %=means percent patients spending at least some time in treatment group who experienced new event during interval. For Table 7, n is the number of patients with events meeting the criteria; N is number of patients in the population; % is percent of patients in treatment group experiencing the event.

[2] = system: patients with type 2 diabetes who have inadequate glycemic control; assay: Phase 2 clinical study NCT03311724 (12 weeks, escalation schemes): patients reaching HbA1c target
Excerpt: This is a 12-week treatment with a 1 week screening (Visit 1) followed by a 1 week lead-in (Visit 2), then 12 weeks of treatment (Visits 3-10, including telephone visits), then followed by 4-week safety follow-up. It is a Phase 2 study designed to examine the efficacy and tolerability of subcutaneously once-weekly tirzepatide compared with placebo in patients with type 2 diabetes who have inadequate glycemic control with diet and exercise alone or with a stable dose of metformin. The study was designed per below and conducted to refine the escalation scheme.

[3] = system: patients with T2DM who have inadequate glycemic control; assay: Phase 2 clinical study NCT03131687 (26 weeks): patients reaching HbA1c target
Procedure: as §1, §2

[4] = LY 1 mg = tirzepatide 1 mg once weekly, LOCF
[5] = LY 1 mg = tirzepatide 1 mg once weekly, second line, analysis set not given (not LOCF)
[6] = LY 5 mg = tirzepatide 5 mg once weekly, LOCF
[7] = LY 5 mg = tirzepatide 5 mg once weekly, second line, analysis set not given (not LOCF)
[8] = LY 10 mg = tirzepatide once weekly, highest dose 10 mg, LOCF
[9] = LY 10 mg = tirzepatide once weekly, highest dose 10 mg, second line, analysis set not given (not LOCF)
[10] = LY 15 mg = tirzepatide once weekly, highest dose 15 mg, LOCF
[11] = LY 15 mg = tirzepatide once weekly, highest dose 15 mg, second line, analysis set not given (not LOCF)
[12] = LY 12 mg Group 3 (tirzepatide 4 mg × 4, 8 mg × 4, 12 mg × 4 once weekly), LOCF Week 12 (N = 28)
[13] = LY 12 mg Group 3 (tirzepatide 4 mg × 4, 8 mg × 4, 12 mg × 4 once weekly), Week 12 mITT on-treatment (N = 27)
[14] = LY 15 mg-Group 1 (tirzepatide 2.5 mg × 2, 5 mg × 2, 10 mg × 4, 15 mg × 4 once weekly), LOCF Week 12 (N = 28)
[15] = LY 15 mg-Group 1 (tirzepatide 2.5 mg × 2, 5 mg × 2, 10 mg × 4, 15 mg × 4 once weekly), Week 12 mITT on-treatment (N = 23)
[16] = LY 15 mg-Group 2 (tirzepatide 2.5 mg × 4, 7.5 mg × 4, 15 mg × 4 once weekly), LOCF Week 12 (N = 27)
[17] = LY 15 mg-Group 2 (tirzepatide 2.5 mg × 4, 7.5 mg × 4, 15 mg × 4 once weekly), Week 12 mITT on-treatment (N = 26)
[18] = LY 5 mg = tirzepatide 5 mg once weekly, LOCF Week 26 (N = 55)
[19] = LY 5 mg = tirzepatide 5 mg once weekly, mITT Week 26 (N = 48)
[20] = LY 10 mg = tirzepatide once weekly, escalation to highest dose 10 mg, LOCF Week 26 (N = 51)
[21] = LY 10 mg = tirzepatide once weekly, escalation to highest dose 10 mg, mITT Week 26 (N = 44)
[22] = LY 15 mg = tirzepatide once weekly, escalation to highest dose 15 mg, LOCF Week 26 (N = 53)
[23] = LY 15 mg = tirzepatide once weekly, escalation to highest dose 15 mg, mITT Week 26 (N = 35)

For tirzepatide [LY], the “body weight change from baseline (in words)” value ([1]; 5 mg, 10 mg, and 15 mg doses of tirzepatide, significantly different from placebo and dulaglutide 1.5 mg) was “significantly decrease body weight from baseline”, the “% of Patients Achieving Weight loss ≥10%” value [1, 4] was 5.8% and the “odds ratio vs. placebo, Weight loss ≥10%” value [1, 4] was 7.1. For the same substance, the “% of Patients Achieving Weight loss ≥10%” value [1, 5] was 6.8%, the “% of Patients Achieving Weight loss ≥15%” value [1, 5] was 0% and the “odds ratio vs. placebo, Weight loss ≥10%” value [1, 5] was 6.7. The “% of Patients Achieving Weight loss ≥10%” value [1, 6] was 16.4%, the “odds ratio vs. placebo, Weight loss ≥10%” value [1, 6] was 20.8 and the “% of Patients Achieving Weight loss ≥10%” value [1, 7] was 16.7%. For the same substance, the “% of Patients Achieving Weight loss ≥15%” value [1, 7] was 6.3%, the “odds ratio vs. placebo, Weight loss ≥10%” value [1, 7] was 17.2 and the “% of Patients Achieving Weight loss ≥10%” value [1, 8] was 39.2%. The “odds ratio vs. placebo, Weight loss ≥10%” value [1, 8] was 67.6, the “% of Patients Achieving Weight loss ≥10%” value [1, 9] was 45.5% and the “% of Patients Achieving Weight loss ≥15%” value [1, 9] was 25.0%. For the same substance, the “odds ratio vs. placebo, Weight loss ≥10%” value [1, 9] was 71.7, the “% of Patients Achieving Weight loss ≥10%” value [1, 10] was 37.7% and the “odds ratio vs. placebo, Weight loss ≥10%” value [1, 10] was 66.2. The “% of Patients Achieving Weight loss ≥10%” value [1, 11] was 54.3%, the “% of Patients Achieving Weight loss ≥15%” value [1, 11] was 34.3% and the “odds ratio vs. placebo, Weight loss ≥10%” value [1, 11] was 109.2. The “placebo-adjusted changes from baseline in HbA1c (in words)” value ([2]; 12-mg and 15-mg tirzepatide doses, after 12 weeks of treatment, including an 8-week escalation period) was “statistically significant and clinically relevant”, the “% of Patients Reaching HbA1c Target <5.7%” value [2, 12] was 3.6% and the “% of Patients Reaching HbA1c Target <7%” value [2, 12] was 71.4%. For the same substance, the “odds ratio vs. placebo, Patients Reaching HbA1c Target <5.7%” value [2, 12] was 2.8, the “odds ratio vs. placebo, Patients Reaching HbA1c Target <7%” value [2, 12] was 16.1 and the “% of Patients Reaching HbA1c Target <5.7%” value [2, 13] was 3.7%. For the same substance, the “% of Patients Reaching HbA1c Target <7%” value [2, 13] was 74.1%, the “odds ratio vs. placebo, Patients Reaching HbA1c Target <5.7%” value [2, 13] was 2.5 and the “odds ratio vs. placebo, Patients Reaching HbA1c Target <7%” value [2, 13] was 56.5. For the same substance, the “% of Patients Reaching HbA1c Target <5.7%” value [2, 14] was 3.6%, the “% of Patients Reaching HbA1c Target <7%” value [2, 14] was 78.6% and the “odds ratio vs. placebo, Patients Reaching HbA1c Target <5.7%” value [2, 14] was 2.9. The “odds ratio vs. placebo, Patients Reaching HbA1c Target <7%” value [2, 14] was 25.1, the “% of Patients Reaching HbA1c Target <5.7%” value [2, 15] was 4.3% and the “% of Patients Reaching HbA1c Target <7%” value [2, 15] was 87.0%. For the same substance, the “odds ratio vs. placebo, Patients Reaching HbA1c Target <5.7%” value [2, 15] was 3.1, the “odds ratio vs. placebo, Patients Reaching HbA1c Target <7%” value [2, 15] was 183.5 and the “% of Patients Reaching HbA1c Target <5.7%” value [2, 16] was 7.4%. The “% of Patients Reaching HbA1c Target <7%” value [2, 16] was 85.2%, the “odds ratio vs. placebo, Patients Reaching HbA1c Target <5.7%” value [2, 16] was 5.0 and the “odds ratio vs. placebo, Patients Reaching HbA1c Target <7%” value [2, 16] was 37.9. The “% of Patients Reaching HbA1c Target <5.7%” value [2, 17] was 7.7%, the “% of Patients Reaching HbA1c Target <7%” value [2, 17] was 84.6% and the “odds ratio vs. placebo, Patients Reaching HbA1c Target <5.7%” value [2, 17] was 4.6. For the same substance, the “odds ratio vs. placebo, Patients Reaching HbA1c Target <7%” value [2, 17] was 157.5, the “HbA1c change from baseline (in words)” value ([3]; 5 mg, 10 mg, and 15 mg doses of tirzepatide, significantly different from placebo and from dulaglutide 1.5 mg) was “significantly decrease HbA1c from baseline” and the “% of Patients Reaching HbA1c Target <5.7%” value [3, 18] was 3.6%. The “% of Patients Reaching HbA1c Target <6%” value [3, 18] was 25.5%, the “odds ratio vs. placebo, Patients Reaching HbA1c Target <5.7%” value [3, 18] was 1.6 and the “odds ratio vs. placebo, Patients Reaching HbA1c Target <6%” value [3, 18] was 11.8. The “% of Patients Reaching HbA1c Target <5.7%” value [3, 19] was 4.3%, the “% of Patients Reaching HbA1c Target <6%” value [3, 19] was 23.4% and the “odds ratio vs. placebo, Patients Reaching HbA1c Target <5.7%” value [3, 19] was 1.7. For the same substance, the “odds ratio vs. placebo, Patients Reaching HbA1c Target <6%” value [3, 19] was 10.5, the “% of Patients Reaching HbA1c Target <5.7%” value [3, 20] was 18.0% and the “% of Patients Reaching HbA1c Target <6%” value [3, 20] was 46.0%. The “odds ratio vs. placebo, Patients Reaching HbA1c Target <5.7%” value [3, 20] was 7.8, the “odds ratio vs. placebo, Patients Reaching HbA1c Target <6%” value [3, 20] was 28.7 and the “% of Patients Reaching HbA1c Target <5.7%” value [3, 21] was 20.9%. The “% of Patients Reaching HbA1c Target <6%” value [3, 21] was 51.2%, the “odds ratio vs. placebo, Patients Reaching HbA1c Target <5.7%” value [3, 21] was 7.9 and the “odds ratio vs. placebo, Patients Reaching HbA1c Target <6%” value [3, 21] was 34.5. For the same substance, the “% of Patients Reaching HbA1c Target <5.7%” value [3, 22] was 30.2%, the “% of Patients Reaching HbA1c Target <6%” value [3, 22] was 37.7% and the “odds ratio vs. placebo, Patients Reaching HbA1c Target <5.7%” value [3, 22] was 14.4. The “odds ratio vs. placebo, Patients Reaching HbA1c Target <6%” value [3, 22] was 22.0, the “% of Patients Reaching HbA1c Target <5.7%” value [3, 23] was 42.9% and the “% of Patients Reaching HbA1c Target <6%” value [3, 23] was 54.3%. For the same substance, the “odds ratio vs. placebo, Patients Reaching HbA1c Target <5.7%” value [3, 23] was 26.6 and the “odds ratio vs. placebo, Patients Reaching HbA1c Target <6%” value [3, 23] was 48.7.
